Reference: patent US12473326B2, “Crystalline forms of dexamethasone dimers and uses thereof” (Ripple Therapeutics Corporation, priority 2019, dated 2025)

Legend:
[1] = Drug release from crystalline powders suspended in PBS with 50% FBS, quantified by HPLC over time; type: physicochemical; conditions: crystalline powder suspended in PBS with 50% FBS, FIG. 12
Excerpt: FIG. 12 is a graph depicting the release of Compound 1 from crystalline powders suspended in phosphate buffered saline (PBS) with 50% fetal bovine serum (FBS). The release of Compound 1 from the different crystalline forms was quantified by HPLC over time as described in Example 10.
Form I/II (mixture) and Form IV of Compound 1 were formed from acetonitrile and ethanol respectively. The crystalline powders were suspended in phosphate buffered saline (PBS) with 50% fetal bovine serum (FBS) and drug release from the different forms was quantified by HPLC over time (see FIG. 12).

[2] = Drug release from heat-molded glassy pellets in PBS, 1% FBS in PBS or 100% FBS at 37° C. (HPLC); type: physicochemical; conditions: heat-molded pellets in the glassy state, about 1 mm x 1 mm
Protocol: Heat-molded pellets from Compound 1 (˜1 mm×1 mm) were then placed in 20 mL glass vials and 2 mL of release buffer (either 100% phosphate buffered saline (PBS), 1% fetal bovine serum (FBS) in PBS, or 100% FBS) was added. Samples were incubated at 37° C. on a shaker rotating at 115 rpm. After 1 day, 3 days, 7 days, and subsequently in alternating 3 and 4 day intervals (i.e., 1, 3, 7, 10, 14 days etc.), release buffer was sampled directly (PBS) or syringe filtered, proteins were precipitated with acetonitrile, and drug release products were extracted. The samples were analyzed by high performance liquid chromatography (HPLC) to quantify drug products.

[3] = type: physicochemical; conditions: for thermodynamic stability of polymorph: solid form, comparison among observed polymorphs; for interconversion into other polymorphs: under the conditions tested
Excerpt: Thus, Form IV in solid form has the advantage of longer-term shelf life without interconversion into another crystalline form.

[4] = Solubility in 90% acetonitrile-10% water as a function of temperature; type: physicochemical; conditions: Form II vs Form IV, FIG. 15
Protocol: FIG. 15 is a graph depicting the difference in the solubilities (mg/mi) of Form II and Form IV in […] as a function of temperature.
The solubility of Form II and Form IV were measured in 90% acetonitrile-10% water as a function of temperature (see FIG. 15).

[5] = Solubility in organic solvents; type: physicochemical
Excerpt: This observation has implications for coating applications as making high concentration coating solutions (e.g., for coating a surface by dip coating or spray coating a solution of Compound 1 onto the surface) will be much more practical from Form II than from Form IV.

[6] = Differential scanning calorimetry (behaviour on heating); type: physicochemical; conditions: DSC, FIG. 14

Row | Structure (SMILES) | drug release from the crystalline form over time [1] | thermodynamic stability of polymorph [3] | interconversion into other polymorphs [3] | also measured
1 | C[C@@H]1C[C@H]2[C@@H]3CCC4=CC(=O)C=C[C@]4(C)[C@@]3(F)[C@@H](O)C[C@]2(C)[C@@]1(O)C(=O)COC(=O)OCCOCCOCCOC(=O)OCC(=O)[C@@]1(O)[C@H](C)C[C@H]2[C@@H]3CCC4=CC(=O)C=C[C@]4(C)[C@@]3(F)[C@@H](O)C[C@@]21C [Form I/II] | faster release compared to Form IV |  |  | 
2 | C[C@@H]1C[C@H]2[C@@H]3CCC4=CC(=O)C=C[C@]4(C)[C@@]3(F)[C@@H](O)C[C@]2(C)[C@@]1(O)C(=O)COC(=O)OCCOCCOCCOC(=O)OCC(=O)[C@@]1(O)[C@H](C)C[C@H]2[C@@H]3CCC4=CC(=O)C=C[C@]4(C)[C@@]3(F)[C@@H](O)C[C@@]21C [Compound 1, dexamethasone-triethylene glycol-dexamethasone] |  |  |  | mechanism of drug release from pellet [2]: Release Drug Through Surface Erosion from an Intact Pellet
3 | C[C@@H]1C[C@H]2[C@@H]3CCC4=CC(=O)C=C[C@]4(C)[C@@]3(F)[C@@H](O)C[C@]2(C)[C@@]1(O)C(=O)COC(=O)OCCOCCOCCOC(=O)OCC(=O)[C@@]1(O)[C@H](C)C[C@H]2[C@@H]3CCC4=CC(=O)C=C[C@]4(C)[C@@]3(F)[C@@H](O)C[C@@]21C [Form VIII] |  |  |  | conversion to another form by PXRD ([3]; after 14 days at room temperature and/or cooling at 0° C. for 14 days): conversion to Form IV
4 | C[C@@H]1C[C@H]2[C@@H]3CCC4=CC(=O)C=C[C@]4(C)[C@@]3(F)[C@@H](O)C[C@]2(C)[C@@]1(O)C(=O)COC(=O)OCCOCCOCCOC(=O)OCC(=O)[C@@]1(O)[C@H](C)C[C@H]2[C@@H]3CCC4=CC(=O)C=C[C@]4(C)[C@@]3(F)[C@@H](O)C[C@@]21C [Form II] |  | high thermodynamic stability | not observed to convert to Form IV | solubility as a function of temperature [4]: higher solubility; solubility in organic solvents, comparison in words ([5]; Form II vs Form IV): much more soluble in organic solvents than Form IV
5 | C[C@@H]1C[C@H]2[C@@H]3CCC4=CC(=O)C=C[C@]4(C)[C@@]3(F)[C@@H](O)C[C@]2(C)[C@@]1(O)C(=O)COC(=O)OCCOCCOCCOC(=O)OCC(=O)[C@@]1(O)[C@H](C)C[C@H]2[C@@H]3CCC4=CC(=O)C=C[C@]4(C)[C@@]3(F)[C@@H](O)C[C@@]21C [Form IV] | slower dissolution | most thermodynamically stable polymorph observed | not seen to convert into any other polymorphs | solubility in organic solvents relative to Form II ([5]; acetonitrile, ethanol, tetrahydrofuran, 2-methyl tetrahydrofuran, isobutyl acetate, acetone, butyl acetate, ethyl acetate, isopropyl acetate, methanol): ca. 10 fold; behaviour on heating (thermal stability) [6]: decomposes on heating
